Results on 2 molecules are retold here after patent US20110087015A1, “Nucleoside and nucleotide having an unnatural base and use thereof” (priority 2003, published 2011).

The structures appear in SMILES notation. “Also recorded” adds a separate entry of the source. Like-named read-outs stand apart in the source and are kept apart here.

In general, Km refers to the substrate concentration at which the rate is half of its maximum.

For assay [1], the target named is T1, Klenow fragment (KF exo−) (Escherichia coli, UniProt P00582, D355A/E357A).
T1 construct: Large fragment of DNA polymerase Exonuclease-free Klenow enzyme (Cloned) (Amersham USB); purchased Amersham USB
Type of assay: biochemical, E. coli. The conditions noted are these: for efficiency (Vmax/Km) / Km / Vmax: template base N = label; for Vmax: normalized to enzyme concentration 20 nM. The text has this:
This example was intended to analyze reaction rate constants in the same Klenow fragment-mediated single nucleotide insertion reaction as shown in Example 2.
More specifically, the reaction primer used was a primer whose 5′-end was fluorescently labeled with 6-FAM (SEQ ID NO: 1, FIG. 10). The primer whose 5′-end was fluorescently labeled was purchased from Applied Biosystems among those commercially available as custom fluorescent primers for GeneScan, and purified by gel electrophoresis. The analysis of reaction products was performed with a DNA sequencer (Applied Biosystems; model ABI377).
Reaction conditions: Template DNA (SEQ ID NO: 2 or 3) (10 μM) and the fluorescently-labeled primer (10 μM), each of which had been dissolved in 2× reaction buffer (100 mM Tris-HCl pH 7.5, 20 mM MgCl2, 2 mM DTT, 100 μg/ml BSA), were heated at 95° C. for 3 minutes and then annealed by quenching to form a duplex between the template and the primer. After this duplex DNA solution was dispensed in 5 μl aliquots, a KF exo^− solution (15-250 nM) diluted with enzyme dilution buffer was added in a volume of 2 μl, followed by incubation at 37° C. for 2 minutes to form a DNA-enzyme complex. The resulting solution was supplemented with 3 μl dNTP solution (any one of A, G, C, T or y) (100 μM-7 mM) and enzymatically reacted at 37° C. (1.5-20 minutes). The reaction was stopped by adding 10 μl of a 95% formamide solution containing 20 mM EDTA (stop solution) and heating at 75° C. for 3 minutes.
The reaction conditions are summarized as follows: 5 μM template-primer duplex, 3-50 nM enzyme and 30-2100 μM dNTP are used in a solution (10 μl). The solution (10 μl) contains 50 mM Tris-HCl (pH 7.5), 10 mM MgCl2, 1 mM DTT and 0.05 mg/ml BSA. The reaction is performed at 37° C. for 1.5-20 minutes.
After aliquot parts of the reaction solutions were diluted 50-fold with the stop solution, the thus diluted reaction solutions (0.5 μl) were each mixed with 3 μl loading solution (deionized formamide:50 mg/mL blue dextran solution containing 25 mM EDTA=5:1), heated at 90° C. for 2 minutes and then quenched on ice. Aliquots (about 0.5 μl) of the resulting solutions were loaded on every other lane of a sequence gel and electrophoresed. The sequence gel (36 cm WTR) has the following composition: 6 M urea, 8% polyacrylamide (acrylamide:bisacrylamide=19:1), and 0.5×TBE. The electrophoresis buffer used was 0.5×TBE. The run module used was GS Run 36C-2400. The electrophoresis time was set to about 1 hour, and peak patterns of the reaction products were analyzed and quantified using GeneScan Software (Version 3.0).
Using the peak heights of the unreacted primer fragment and single nucleotide-inserted DNA fragments, the percentage of each primer elongated by a single nucleotide was determined to calculate enzymological parameters Km and Vmax from Hanes-Woolf plots (Goodman, M. F., Creighton, S., Bloom, L. B., Petruska, J. Crit. Rev. Biochem. Mol. Biol., 28, 83-126 (1993)).

The target in assay [2] is T2, Klenow fragment (Large Fragment E. coli DNA Polymerase I) (Escherichia coli, UniProt P00582).
T2 construct: purchased TaKaRa
The experiment in a line: Klenow fragment-mediated elongation reaction (replication). The format is biochemical. The conditions noted are these: substrates A; for replication with two adjacent unnatural bases in template (35-mer product): G, y, NN=vv or NN=ss. From the text:
This example was intended to study selective introduction of y at a site corresponding to v in the complementary DNA strand during Klenow fragment-mediated elongation reaction, rather than single-base incorporation. The reaction primer DNA and template DNA used are shown below.
As in the case of Example 2, the primer was pre-labeled at its 5′-end using […] and then purified by gel electrophoresis. In Experiments 2 and 3, the base y is incorporated as the first base of elongation from the primer. In contrast, in this experiment, v in the template is located at a position corresponding to the severalth base elongated from the primer, and it is therefore possible to study the introduction of y at a site corresponding to v in the complementary DNA strand during elongation reaction.
The template DNA (400 nM) and the primer whose 5′-end was labeled with ^32P (FIG. 11) (400 nM), each of which had been dissolved in 2× reaction buffer (20 mM Tris-HCl pH 7.5, 14 mM MgCl2, 0.2 mM DTT), were heated at 95° C. for 3 minutes and then annealed by quenching to form a duplex. After this duplex DNA solution was dispensed in 5 μl aliquots, 2 μl of a dNTP solution (a combination shown in each lane of FIG. 12 or 13) (50 μM) and 3 μl (0.15 units) of Klenow fragment (KF exo^+; Cloned Klenow Fragment for sequencing (Large Fragment E. coli DNA Polymerase I), purchased from TaKaRa) diluted with water were added to start the enzymatic reaction at 37° C. After incubation for 3 minutes, the enzymatic reaction was stopped by adding 10 μl of a 10 M urea-containing TBE solution and heating at 75° C. for 3 minutes. The reaction conditions are summarized as follows: template/primer 200 nM; KF […] 0.015U/μl; dNTPs 10 μM; reaction at 37° C. for 3 minutes.
Aliquot parts of the reaction solutions were electrophoresed on a 15% polyacrylamide-7 M urea gel and the reaction products were analyzed with a bioimaging analyzer (BAS2500, Fuji Photo Film Co., Ltd., Japan). […]

Another assay has as its target T3, T7 RNA polymerase (Escherichia phage T7, UniProt P00573).
T3 construct: purchased TAKARA SHUZO CO., LTD (TaKaRa)
The assay is described as follows: Site-selective introduction of ryTP into RNA through transcription. The format is biochemical. The conditions noted are these: for incorporation efficiency of the substrate y into RNA (transcription efficiency): one unnatural base in template (vT or sT), compared to natural base pairing (AT); for transcription efficiency, two y substrates incorporated into RNA: two adjacent unnatural bases in template (NN=vv or NN=ss). On the procedure: This example was intended to study site-selective introduction of ryTP into RNA through transcription reaction. […] The DNA primer required for the transcription reaction had the following sequence.
A template and T7prim21 were mixed in 10 mM Tris-HCl (pH 7.6) containing 10 mM NaCl and annealed into a double-stranded form for use in the transcription reaction (FIG. 14). The T7 transcription reaction was performed on 20 μl scale using an enzyme from TAKARA SHUZO CO., LTD [T. Ohtsuki et al., Proc. Natl. Acad. Sci. USA, 98, 4922-4925 (2001)]. More specifically, the transcription reaction was accomplished by incubation at 37° C. for 3 hours in a reaction solution containing 40 mM Tris-HCl pH 8.0, 5 mM DTT, 24 mM MgCl2, 2 mM spermidine, 0.01% TritonX-100, 10 mM GMP, 1 mM NTPs (N=G, C, U, with or without ryTP, as shown in FIGS. 15 and 16), 2 μCi [α-^32P]ATP, 2 μM double-stranded DNA (template and T7prim21), and 2.5 U/μl T7 RNA polymerase (TaKaRa). If the transcription reaction proceeds completely, an RNA product having the following full-length sequence can be obtained.
The reaction solutions were each supplemented with an equal volume of a 10 M urea-containing BPBdye solution and heated at 75° C. for 3 minutes to stop the reaction, followed by electrophoresis on a 20% polyacrylamide-7 M urea gel to confirm products of the transcription reaction. The [α-^32P]ATP-labeled reaction products were analyzed with a bioimaging analyzer (BAS2500, Fuji Photo Film Co., Ltd., Japan). The incorporation efficiency of the substrate y into RNA when using the sT-containing template in transcription with T7 RNA polymerase (FIG. 14) was about 50% to 60%, as compared to natural base pairing (AT). In contrast, when using the vT-containing template, the incorporation efficiency of the substrate y was 96%, which was as high as that of natural base pairing (FIG. 15).

Assay [3] deals with T4, Klenow fragment (KF exo−), DNA polymerase I lacking 3′→5′ exonuclease activity (Escherichia coli, UniProt P00582, D355A/E357A).
T4 construct: Large fragment of DNA polymerase Exonuclease-free Klenow enzyme (Cloned) (Amersham USB); purchased Amersham USB
The assay is described as follows: Klenow fragment-mediated single nucleotide insertion experiment (replication). Type of assay: biochemical, E. coli. From the text: In this example, E. coli-derived DNA polymerase I lacking 3′→5′ exonuclease activity, i.e., Klenow fragment (KF exo^−) was used to make a comparison of the efficiency for single nucleotide incorporation during replication (i.e., incorporation of 2-oxo-(1H)pyridine (y) into DNA) between v-y base pair (the present invention) and s-y base pair (control).
More specifically, Large fragment of DNA polymerase Exonuclease-free Klenow enzyme (Cloned) (Amersham USB) and 10× reaction buffer attached thereto (500 mM Tris-HCl pH 7.5, 100 mM MgCl2, 10 mM DTT, 0.5 mg/ml BSA) were used. The enzyme concentration of KF exo^− was determined using a Bio-Rad Protein Assay kit (BioRad) for each lot purchased.
The primer for use in the reaction was pre-labeled at its 5′-end using T4 polynucleotide kinase (TaKaRa) and […], and then purified by gel electrophoresis.
Reaction conditions: a mixed solution of template DNA (20 μM, 1 μl), the primer whose 5′-end was labeled with ^32P (5 μM, 4 μl) and 10× reaction buffer (1 μl) was heated at 95° C. for 3 minutes and then annealed by quenching to form a duplex between the template DNA and the primer. A Klenow fragment solution (1 μM) diluted with enzyme dilution buffer (50 mM phosphate buffer pH 7, 50% glycerol, 1 mM DTT) was added in a volume of 2 μl and incubated at 37° C. for 2 minutes, followed by addition of 2 μl dNTP solution (any one of A, G, C, T or y shown in FIG. 8) (100 μM) to start the reaction. After incubation at 37° C. for 2 minutes, 10 μl of a 10 M urea-containing TBE solution was added and heated at 75° C. for 3 minutes to stop the reaction. The reaction conditions are summarized as follows: template/primer 2 μM; KF exo^− 200 nM; dNTP 20 μM; reaction at 37° C. for 2 minutes.
Aliquot parts of the reaction solutions were electrophoresed on a 20% polyacrylamide-7 M urea gel and the reaction products were analyzed with a bioimaging analyzer (BAS2500, Fuji Photo Film Co., Ltd., Japan).

The mark [4] stands for this setting: template/primer 2 μM, KF exo− 200 nM, dNTP 20 μM, 37° C., 2 minutes.

T3 sequence (P00573 whole entry): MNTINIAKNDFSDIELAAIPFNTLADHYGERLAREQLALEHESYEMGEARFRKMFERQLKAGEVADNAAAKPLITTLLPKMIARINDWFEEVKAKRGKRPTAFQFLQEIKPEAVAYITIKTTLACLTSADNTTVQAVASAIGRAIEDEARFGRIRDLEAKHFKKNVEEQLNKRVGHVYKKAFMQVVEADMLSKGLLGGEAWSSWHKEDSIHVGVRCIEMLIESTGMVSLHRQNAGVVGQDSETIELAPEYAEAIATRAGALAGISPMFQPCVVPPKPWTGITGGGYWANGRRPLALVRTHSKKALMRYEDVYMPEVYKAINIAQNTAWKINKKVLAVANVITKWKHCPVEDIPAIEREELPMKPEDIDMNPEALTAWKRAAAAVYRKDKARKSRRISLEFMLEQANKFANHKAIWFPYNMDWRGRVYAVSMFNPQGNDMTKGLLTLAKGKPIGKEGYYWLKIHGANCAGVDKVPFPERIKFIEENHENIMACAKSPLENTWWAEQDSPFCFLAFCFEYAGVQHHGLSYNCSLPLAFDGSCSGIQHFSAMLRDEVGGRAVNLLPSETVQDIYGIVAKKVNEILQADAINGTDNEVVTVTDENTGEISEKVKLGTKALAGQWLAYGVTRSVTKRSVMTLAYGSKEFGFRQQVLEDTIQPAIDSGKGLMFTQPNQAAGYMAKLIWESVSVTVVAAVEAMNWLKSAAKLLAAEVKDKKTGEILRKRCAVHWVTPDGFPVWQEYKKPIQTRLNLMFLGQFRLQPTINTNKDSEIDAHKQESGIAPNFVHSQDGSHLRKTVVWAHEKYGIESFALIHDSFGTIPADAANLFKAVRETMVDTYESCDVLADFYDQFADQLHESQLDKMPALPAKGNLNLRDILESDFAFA
T1 sequence (P00582 324-928 D355A/E357A): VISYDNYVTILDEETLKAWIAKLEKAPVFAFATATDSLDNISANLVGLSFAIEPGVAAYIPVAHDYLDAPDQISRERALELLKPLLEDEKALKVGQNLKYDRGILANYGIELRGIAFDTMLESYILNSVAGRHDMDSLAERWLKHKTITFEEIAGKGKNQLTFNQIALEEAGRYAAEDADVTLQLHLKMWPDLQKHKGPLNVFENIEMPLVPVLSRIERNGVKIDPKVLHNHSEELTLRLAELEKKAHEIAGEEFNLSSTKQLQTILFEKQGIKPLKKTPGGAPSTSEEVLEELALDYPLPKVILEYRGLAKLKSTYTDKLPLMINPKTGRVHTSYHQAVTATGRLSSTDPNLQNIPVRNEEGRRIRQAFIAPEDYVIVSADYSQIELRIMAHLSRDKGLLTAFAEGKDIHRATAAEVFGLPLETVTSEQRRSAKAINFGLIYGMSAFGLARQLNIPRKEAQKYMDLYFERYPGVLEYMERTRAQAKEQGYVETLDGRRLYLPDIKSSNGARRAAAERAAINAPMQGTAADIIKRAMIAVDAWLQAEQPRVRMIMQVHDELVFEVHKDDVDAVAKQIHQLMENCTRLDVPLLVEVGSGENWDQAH
T4 sequence (P00582 324-928 D355A/E357A): as above
T2 sequence (P00582 324-928): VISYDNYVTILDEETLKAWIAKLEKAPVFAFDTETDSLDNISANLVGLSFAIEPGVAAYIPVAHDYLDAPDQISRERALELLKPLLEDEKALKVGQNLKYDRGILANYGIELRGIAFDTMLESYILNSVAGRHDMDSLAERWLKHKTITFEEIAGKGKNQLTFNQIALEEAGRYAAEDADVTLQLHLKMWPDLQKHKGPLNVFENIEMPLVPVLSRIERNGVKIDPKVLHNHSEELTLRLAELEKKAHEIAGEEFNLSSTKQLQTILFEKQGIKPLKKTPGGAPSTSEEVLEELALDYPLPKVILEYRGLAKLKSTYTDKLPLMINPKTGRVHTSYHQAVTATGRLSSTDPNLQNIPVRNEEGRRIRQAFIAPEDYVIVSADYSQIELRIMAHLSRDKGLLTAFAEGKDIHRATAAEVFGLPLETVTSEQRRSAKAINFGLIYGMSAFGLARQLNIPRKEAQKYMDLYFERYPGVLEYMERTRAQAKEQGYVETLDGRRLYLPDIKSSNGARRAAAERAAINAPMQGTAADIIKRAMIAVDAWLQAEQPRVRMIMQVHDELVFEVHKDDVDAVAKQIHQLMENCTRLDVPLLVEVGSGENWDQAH

In the case of `Nc1nc(-c2cccs2)c2[nH]cnc2n1` [s, 2-amino-6-thienylpurine, reference compound], the “efficiency (Vmax/Km)” value in assay [1] (N′ = A) is on record as 3.0 × 10^3 % min^−1M^−1; in assay [1] (N′ = C), 2.5 × 10^4 % min^−1M^−1; in assay [1] (N′ = T) it was 9.4 × 10^3 % min^−1M^−1; in assay [1] (N′ = y), 3.6×10^4 % min^−1M^−1. The Km was found to be 86 µM in assay [1] (N′ = A, SD in parentheses); 590 µM in assay [1] (N′ = C, SD in parentheses); 320 µM in assay [1] (N′ = T, SD in parentheses); 260 µM in assay [1] (nucleoside triphosphate N′ = y, standard deviation in parentheses). The Vmax in assay [1] (N′ = A, SD in parentheses) is 0.26(0.06) % min^−1; in assay [1] (N′ = C, SD in parentheses), 15(5) % min^−1; in assay [1] (N′ = T, SD in parentheses) it was 3.0(0.3) % min^−1; in assay [1] (N′ = y, SD in parentheses) it was 9.4(2.5) % min^−1. Also, in assay [2], the “replication with two adjacent unnatural bases in template (35-mer product)” value is on record as “little 35-mer product was obtained; also recorded: little incorporation of y”. In addition, the “incorporation efficiency of the substrate y into RNA (transcription efficiency)” value on T7 RNA polymerase was 50-60%. At T7 RNA polymerase, the “transcription efficiency, two y substrates incorporated into RNA” value is “no RNA incorporating two y was obtained”.

For `Nc1nc(-c2nccs2)c2[nH]cnc2n1` [v, 2-amino-6-(2-thiazolyl)purine], the “incorporation efficiency of y opposite v relative to y opposite s” value in assay [1] (ratio of Vmax/Km) was “about 4 fold”. For the same molecule, in assay [1] (selectivity, ratio of Vmax/Km), the “incorporation efficiency of y opposite v relative to C incorporation” value is “about 3 fold”. Moreover, the “incorporation efficiency of y opposite v relative to T incorporation” value in assay [1] (selectivity, ratio of Vmax/Km) was at least 20 fold. Also, the “efficiency (Vmax/Km)” value is 3.3 × 10^3 % min^−1M^−1 in assay [1] (N′ = A), 4.1×10^4 % min^−1M^−1 in assay [1] (N′ = C), 5.1×10^3 % min^−1M^−1 in assay [1] (N′ = T) and 1.4×10^5 % min^−1M^−1 in assay [1] (N′ = y). For the same molecule, the Vmax in assay [1] (N′ = A, SD in parentheses) was 0.36(0.08) % min^−1; in assay [1] (N′ = C, SD in parentheses) it was 22(5) % min^−1; in assay [1] (N′ = T, SD in parentheses), 2.0(0.7) % min^−1; in assay [1] (N′ = y, SD in parentheses), 40(21) % min^−1. In assay [2] (G and y, one unnatural base in template (NN=vT vs NN=sT)), the “replication efficiency in elongation reaction (35-mer band intensity)” value was “higher replication efficiency than the s-y base pair”. Moreover, in assay [2], the “replication with two adjacent unnatural bases in template (35-mer product)” value is reported as “allows replication to proceed”. The “incorporation selectivity opposite y” value in assay [3] (compared with s) is “comparable to the selectivity of s”. In addition, in assay [3] (setting [4]), the “incorporation of C opposite the template base” value is recorded as “also incorporated although in a small amount”. Also, the “incorporation of y at the site corresponding to the template base” value in assay [3] (setting [4]) was “selectively incorporated”. Besides, the “incorporation efficiency of the substrate y into RNA (transcription efficiency)” value on T7 RNA polymerase is on record as 96%. In addition, at T7 RNA polymerase, the “transcription efficiency, two y substrates incorporated into RNA” value is “about 30%”.
